The test system of the data set is CCRIS mutagenicity, Ames/micronucleus/aberration tests. Description: CCRIS mutagenicity studies.
[1] abbreviates: Test System: AMES SALMONELLA TYPHIMURIUM, Strain/Indicator: TA98, Metabolic Activation: NONE, Method: STANDARD PLATE.
Setting [2] is: Test System: AMES SALMONELLA TYPHIMURIUM, Strain/Indicator: TA98, Metabolic Activation: RAT, LIVER, S-9, AROCLOR 1254, Method: STANDARD PLATE.
Where [3] appears, read: Test System: AMES SALMONELLA TYPHIMURIUM, Strain/Indicator: TA100, Metabolic Activation: NONE, Method: STANDARD PLATE.
[4] abbreviates: Test System: AMES SALMONELLA TYPHIMURIUM, Strain/Indicator: TA100, Metabolic Activation: RAT, LIVER, S-9, AROCLOR 1254, Method: STANDARD PLATE.
[5] abbreviates: Test System: AMES SALMONELLA TYPHIMURIUM, Strain/Indicator: TA1535, Metabolic Activation: NONE, Method: STANDARD PLATE.
[6] abbreviates: Test System: AMES SALMONELLA TYPHIMURIUM, Strain/Indicator: TA1535, Metabolic Activation: RAT, LIVER, S-9, AROCLOR 1254, Method: STANDARD PLATE.
Where [7] appears, read: Test System: AMES SALMONELLA TYPHIMURIUM, Strain/Indicator: TA1537, Metabolic Activation: NONE, Method: STANDARD PLATE.
Where [8] appears, read: Test System: AMES SALMONELLA TYPHIMURIUM, Strain/Indicator: TA1537, Metabolic Activation: RAT, LIVER, S-9, AROCLOR 1254, Method: STANDARD PLATE.

The values below come from PubChem BioAssay AID1259407 (Chemical Carcinogenesis Research Information System (CCRIS), 2018).

The source made the active and inactive calls. How the calls were made is not given here.

Take `CN1Cc2c(N)cccc2C(c2ccccc2)C1` (stereo not drawn): the mutagenic call is “inactive; negative” under setting [1]; “inactive; negative” under setting [2]; “inactive; negative” under setting [3]; “inactive; negative” under setting [4]; “inactive; negative” under setting [5]; “inactive; negative” under setting [6]. Moreover, the mutagenic call runs as follows: under setting [7], “inactive; negative”; under setting [8], “inactive; negative”.

Consider `CCCCCCCCc1ccc(Nc2ccc(CCCCCCCC)cc2)cc1`, for which the mutagenic call reads like this: (End Point: IN VITRO CHROMOSOMAL ABERRATIONS, Test System: CHINESE HAMSTER LUNG CELLS (CHL), Metabolic Activation: NONE) “inactive; negative”; (End Point: IN VITRO CHROMOSOMAL ABERRATIONS, Test System: CHINESE HAMSTER LUNG CELLS (CHL), Metabolic Activation: RAT, LIVER, S-9, KC-400) “inactive; negative”; (End Point: IN VITRO CHROMOSOMAL ABERRATIONS, Test System: CHINESE HAMSTER OVARY CELLS (CHO), Metabolic Activation: NONE) “inactive; negative”; (End Point: IN VITRO CHROMOSOMAL ABERRATIONS, Test System: CHINESE HAMSTER OVARY CELLS (CHO), Metabolic Activation: RAT, LIVER, S-9, AROCLOR 1254) “inactive; negative”; (End Point: IN VITRO CHROMOSOMAL ABERRATIONS, Test System: CHO-LB CELLS, Metabolic Activation: NONE) “inactive; negative”; (End Point: IN VITRO CHROMOSOMAL ABERRATIONS, Test System: CHO-LB CELLS, Metabolic Activation: RAT, LIVER, S-9, AROCLOR 1254) “inactive; negative”. For the same compound, the mutagenic call (Test System: AMES SALMONELLA TYPHIMURIUM, Strain/Indicator: TA97, Metabolic Activation: HAMSTER, LIVER, S-9, AROCLOR 1254 (10 OR 30%), Method: PREINCUBATION) is “inactive; negative”; the mutagenic call (Test System: AMES SALMONELLA TYPHIMURIUM, Strain/Indicator: TA97, Metabolic Activation: NONE, Method: PREINCUBATION) is “inactive; negative”; the mutagenic call (Test System: AMES SALMONELLA TYPHIMURIUM, Strain/Indicator: TA97, Metabolic Activation: RAT, LIVER, S-9, AROCLOR 1254 (10 OR 30%), Method: PREINCUBATION) is “inactive; negative”; the mutagenic call (Test System: AMES SALMONELLA TYPHIMURIUM, Strain/Indicator: TA98, Metabolic Activation: HAMSTER, LIVER, S-9, AROCLOR 1254 (10 OR 30%), Method: PREINCUBATION) is “inactive; negative”; the mutagenic call (Test System: AMES SALMONELLA TYPHIMURIUM, Strain/Indicator: TA98, Metabolic Activation: NONE, Method: PREINCUBATION) was “inactive; negative”; the mutagenic call (Test System: AMES SALMONELLA TYPHIMURIUM, Strain/Indicator: TA98, Metabolic Activation: RAT, LIVER, S-9, AROCLOR 1254 (10 OR 30%), Method: PREINCUBATION) was “inactive; negative”. In addition, the mutagenic call (Test System: AMES SALMONELLA TYPHIMURIUM, Strain/Indicator: TA100, Metabolic Activation: HAMSTER, LIVER, S-9, AROCLOR 1254 (10 OR 30%), Method: PREINCUBATION) is “inactive; negative”; the mutagenic call (Test System: AMES SALMONELLA TYPHIMURIUM, Strain/Indicator: TA100, Metabolic Activation: NONE, Method: PREINCUBATION) was “inactive; negative”; the mutagenic call (Test System: AMES SALMONELLA TYPHIMURIUM, Strain/Indicator: TA100, Metabolic Activation: RAT, LIVER, S-9, AROCLOR 1254 (10 OR 30%), Method: PREINCUBATION) was “inactive; negative”; the mutagenic call (Test System: AMES SALMONELLA TYPHIMURIUM, Strain/Indicator: TA1535, Metabolic Activation: HAMSTER, LIVER, S-9, AROCLOR 1254 (10 OR 30%), Method: PREINCUBATION) is “inactive; negative”; the mutagenic call (Test System: AMES SALMONELLA TYPHIMURIUM, Strain/Indicator: TA1535, Metabolic Activation: NONE, Method: PREINCUBATION) was “inactive; negative”; the mutagenic call (Test System: AMES SALMONELLA TYPHIMURIUM, Strain/Indicator: TA1535, Metabolic Activation: RAT, LIVER, S-9, AROCLOR 1254 (10 OR 30%), Method: PREINCUBATION) was “inactive; negative”. The mutagenic call runs as follows: (Test System: AMES SALMONELLA TYPHIMURIUM, Strain/Indicator: TA1537, Metabolic Activation: HAMSTER, LIVER, S-9, AROCLOR 1254 (30%), Method: PREINCUBATION) “inactive; negative”; (Test System: AMES SALMONELLA TYPHIMURIUM, Strain/Indicator: TA1537, Metabolic Activation: NONE, Method: PREINCUBATION) “inactive; negative”; (Test System: AMES SALMONELLA TYPHIMURIUM, Strain/Indicator: TA1537, Metabolic Activation: RAT, LIVER, S-9, AROCLOR 1254 (30%), Method: PREINCUBATION) “inactive; negative”.

Turning to `Nc1cc2ccc3cccc4ccc(c1)c2c34`, the mutagenic call (Test System: AMES SALMONELLA TYPHIMURIUM, Strain/Indicator: TA98, Metabolic Activation: RAT, LIVER, S-9, AROCLOR 1254 (2 OR 4%), Method: STANDARD PLATE) was “active; positive”; the mutagenic call (Test System: AMES SALMONELLA TYPHIMURIUM, Strain/Indicator: TA100, Metabolic Activation: RAT, LIVER, S-9, AROCLOR 1254 (2%), Method: STANDARD PLATE) is “active; positive”; the mutagenic call (Test System: AMES SALMONELLA TYPHIMURIUM, Strain/Indicator: TA1535, Metabolic Activation: RAT, LIVER, S-9, AROCLOR 1254 (2%), Method: STANDARD PLATE) is “inactive; negative”; the mutagenic call (Test System: AMES SALMONELLA TYPHIMURIUM, Strain/Indicator: TA1537, Metabolic Activation: RAT, LIVER, S-9, AROCLOR 1254 (2%), Method: STANDARD PLATE) was “active; positive”.

As for `CCOC(=O)c1cccc2cccnc12`, the mutagenic call is, setting by setting: under setting [1], “inactive; negative”; under setting [2], “inactive; negative”; under setting [3], “inactive; negative”; under setting [4], “inactive; negative”; under setting [5], “inactive; negative”; under setting [6], “inactive; negative”. Also, the mutagenic call was “inactive; negative” under setting [7] and “inactive; negative” under setting [8].

As to `[O-][n+]1c2ccccc2c2ccc3cccc4ccc1c2c34`, the mutagenic call (Test System: AMES SALMONELLA TYPHIMURIUM, Strain/Indicator: TA98, Metabolic Activation: NONE) is “inactive; negative”; the mutagenic call (Test System: AMES SALMONELLA TYPHIMURIUM, Strain/Indicator: TA98, Metabolic Activation: S-9) was “active; positive”; the mutagenic call (Test System: AMES SALMONELLA TYPHIMURIUM, Strain/Indicator: TA100, Metabolic Activation: NONE) was “inactive; negative”; the mutagenic call (Test System: AMES SALMONELLA TYPHIMURIUM, Strain/Indicator: TA100, Metabolic Activation: S-9) is “active; positive”.

As for `FC(Cl)C(F)(F)F` (stereo not drawn), the mutagenic call was “inactive; negative” (Test System: AMES SALMONELLA TYPHIMURIUM, Strain/Indicator: TA97, Metabolic Activation: NONE, Method: VAPOR CHAMBER); “inactive; negative” (Test System: AMES SALMONELLA TYPHIMURIUM, Strain/Indicator: TA97, Metabolic Activation: RAT LIVER S-9, Method: VAPOR CHAMBER); “inactive; negative” (Test System: AMES SALMONELLA TYPHIMURIUM, Strain/Indicator: TA98, Metabolic Activation: NONE, Method: VAPOR CHAMBER); “inactive; negative” (Test System: AMES SALMONELLA TYPHIMURIUM, Strain/Indicator: TA98, Metabolic Activation: RAT LIVER S-9, Method: VAPOR CHAMBER); “inactive; negative” (Test System: AMES SALMONELLA TYPHIMURIUM, Strain/Indicator: TA100, Metabolic Activation: NONE, Method: VAPOR CHAMBER); “inactive; negative” (Test System: AMES SALMONELLA TYPHIMURIUM, Strain/Indicator: TA100, Metabolic Activation: RAT LIVER S-9, Method: VAPOR CHAMBER). In addition, the mutagenic call (Test System: AMES SALMONELLA TYPHIMURIUM, Strain/Indicator: TA1535, Metabolic Activation: NONE, Method: VAPOR CHAMBER) was “inactive; negative” and the mutagenic call (Test System: AMES SALMONELLA TYPHIMURIUM, Strain/Indicator: TA1535, Metabolic Activation: RAT LIVER S-9, Method: VAPOR CHAMBER) is “inactive; negative”.
